For this assay, the target named is PD-1/PD-L1 (Homo sapiens, UniProt Q9NZQ7). Nature of the assay: TR-FRET PD-1/PD-L1 binding inhibition at the molecular level (free proteins). The settings on record: Tag1-PD-L1 and Tag2-PD-1 proteins, twelve concentrations from 200 nM, 2 hours at room temperature, read-out: FRET assay (IC50). The essentials: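 HTRF read-out at 665/620 nm after 2 h at room temperature. Detection used anti-Tag1 Eu cryptate plus anti-Tag2 XL665 antibodies. Tagged PD-L1 and PD-1 proteins were pre-mixed with compound across twelve […] 1:2 dilutions starting at 200 nM.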
PD-1/PD-L1, sequence (Q9NZQ7 19-238 limits assumed): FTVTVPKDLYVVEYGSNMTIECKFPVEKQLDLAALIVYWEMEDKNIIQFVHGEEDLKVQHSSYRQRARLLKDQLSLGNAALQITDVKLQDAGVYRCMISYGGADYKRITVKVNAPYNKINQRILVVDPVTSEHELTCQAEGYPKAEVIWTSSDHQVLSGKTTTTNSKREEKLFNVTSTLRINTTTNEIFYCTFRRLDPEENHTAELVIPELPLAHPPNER
Background: TR-FRET usually uses a lanthanide donor and a delayed reading to cut background.

The structures appear in SMILES notation. pIC50: −log10 of the molar value.

Among the data in patent EP4755888A1 (ILAb Co., Ltd., priority 2023, dated 2025) are IC50 values, retold here.

As usually defined, the pIC50 is the negative decadic logarithm of the IC50, by convention in mol/L. `Cc1c(NC(=O)c2cc3n(n2)CCCC3NCCO)cccc1-c1cccc(NC(=O)c2nc3c(n2C)CCN(CCC24CCC(C(=O)O)(CC2)C4)C3)c1C` (centres unmarked) [Compound 48, 4-(2-(2-((3'-(4-((2-hydroxyethyl)amino)-4,5,6,7-tetrahydropyrazolo[1,5-a]pyridine-2-carboxamido)-2,2'-dimethyl-[1,1'-biphenyl]-3-yl)carbamoyl)-1-methyl-6,7-dihydro-1H-imidazo[4,5-c]pyridin-5(4H)-yl)ethyl)bicyclo[2.2.1]heptane-1-carboxylic acid]: the pIC50 was above 8.00.
Take `Cc1c(NC(=O)c2cc3n(n2)CCCC3NC[C@@H]2CCC(=O)N2)cccc1-c1cccc(NC(=O)c2nc3c(n2C)CCN(CCC24CCC(C(=O)O)(CC2)C4)C3)c1C` (stereo partly drawn) [Compound 49, 4-(2-(2-((2,2'-dimethyl-3'-(4-((((S)-5-oxopyrrolidin-2-yl)methyl)amino)-4,5,6,7-tetrahydropyrazolo[1,5-a]pyridine-2-carboxamido)-[1,1'-biphenyl]-3-yl)carbamoyl)-1-methyl-6,7-dihydro-1H-imidazo[4,5-c]pyridin-5(4H)-yl)ethyl)bicyclo[2.2.1]heptane-1-carboxylic acid]: the negative logarithm of the IC50 (pIC50) was above 8.00.
To `Cc1c(NC(=O)c2cc3n(n2)CCCC3NCC(=O)O)cccc1-c1cccc(NC(=O)c2nc3c(n2C)CCN(CCC24CCC(C(=O)O)(CC2)C4)C3)c1C` (centres unmarked) [Compound 50, 4-(2-(2-((3'-(4-((carboxymethyl)amino)-4,5,6,7-tetrahydropyrazolo[1,5-a]pyridine-2-carboxamido)-2,2'-dimethyl-[1,1'-biphenyl]-3-yl)carbamoyl)-1-methyl-6,7-dihydro-1H-imidazo[4,5-c]pyridin-5(4H)-yl)ethyl)bicyclo[2.2.1]heptane-1-carboxylic acid] belongs above 8.00.
Take `Cc1c(NC(=O)c2cc3n(n2)CCCC3NC(C)(C)C(=O)O)cccc1-c1cccc(NC(=O)c2nc3c(n2C)CCN(CCC24CCC(C(=O)O)(CC2)C4)C3)c1C` (centres unmarked) [Compound 51, 4-(2-(2-((3'-(4-((2-carboxypropan-2-yl)amino)-4,5,6,7-tetrahydropyrazolo[1,5-a]pyridine-2-carboxamido)-2,2'-dimethyl-[1,1'-biphenyl]-3-yl)carbamoyl)-1-methyl-6,7-dihydro-1H-imidazo[4,5-c]pyridin-5(4H)-yl)ethyl)bicyclo[2.2.1]heptane-1-carboxylic acid]: the pIC50 was above 8.00.
Consider `CC(=O)NCCNC1CCCn2nc(C(=O)Nc3cccc(-c4cccc(NC(=O)c5nc6c(n5C)CCN(CCC57CCC(C(=O)O)(CC5)C7)C6)c4Cl)c3Cl)cc21` (centres unmarked) [Compound 52, 4-(2-(2-((3'-(4-((2-acetamidoethyl)amino)-4,5,6,7-tetrahydropyrazolo[1,5-a]pyridine-2-carboxamido)-2,2'-dichloro-[1,1'-biphenyl]-3-yl)carbamoyl)-1-methyl-6,7-dihydro-1H-imidazo[4,5-c]pyridin-5(4H)-yl)ethyl)bicyclo[2.2.1]heptane-1-carboxylic acid], for which the pIC50 was above 8.00.
Then `Cn1c(C(=O)Nc2cccc(-c3cccc(NC(=O)c4cc5n(n4)CCCC5NCCO)c3Cl)c2Cl)nc2c1CCN(CCC13CCC(C(=O)O)(CC1)C3)C2` (centres unmarked) [Compound 53, 4-(2-(2-((2,2'-dichloro-3'-(4-((2-hydroxyethyl)amino)-4,5,6,7-tetrahydropyrazolo[1,5-a]pyridine-2-carboxamido)-[1,1'-biphenyl]-3-yl)carbamoyl)-1-methyl-6,7-dihydro-1H-imidazo[4,5-c]pyridin-5(4H)-yl)ethyl)bicyclo[2.2.1]heptane-1-carboxylic acid], with above 8.00; and `Cn1c(C(=O)Nc2cccc(-c3cccc(NC(=O)c4cc5n(n4)CCCC5NC[C@@H]4CCC(=O)N4)c3Cl)c2Cl)nc2c1CCN(CCC13CCC(C(=O)O)(CC1)C3)C2` (stereo partly drawn) [Compound 54, 4-(2-(2-((2,2'-dichloro-3'-(4-((((S)-5-oxopyrrolidin-2-yl)methyl)amino)-4,5,6,7-tetrahydropyrazolo[1,5-a]pyridine-2-carboxamido)-[1,1'-biphenyl]-3-yl)carbamoyl)-1-methyl-6,7-dihydro-1H-imidazo[4,5-c]pyridin-5(4H)-yl)ethyl)bicyclo[2.2.1]heptane-1-carboxylic acid], with 7.00 to 8.00.
`Cn1c(C(=O)Nc2cccc(-c3cccc(NC(=O)c4cc5n(n4)CCCC5NCC(=O)O)c3Cl)c2Cl)nc2c1CCN(CCC13CCC(C(=O)O)(CC1)C3)C2` (centres unmarked) [Compound 56, 4-(2-(2-((3'-(4-((carboxymethyl)amino)-4,5,6,7-tetrahydropyrazolo[1,5-a]pyridine-2-carboxamido)-2,2'-dichloro-[1,1'-biphenyl]-3-yl)carbamoyl)-1-methyl-6,7-dihydro-1H-imidazo[4,5-c]pyridin-5(4H)-yl)ethyl)bicyclo[2.2.1]heptane-1-carboxylic acid]: the pIC50 is above 8.00.
Then `Cn1c(C(=O)Nc2cccc(-c3cccc(NC(=O)c4cc5n(n4)CCCC5N4CC[C@@H](C(=O)O)C4)c3Cl)c2Cl)nc2c1CCN(CCC13CCC(C(=O)O)(CC1)C3)C2` (stereo partly drawn) [Compound 57, (3R)-1-(2-((3'-(5-(2-(4-carboxybicyclo[2.2.1]heptan-1-yl)ethyl)-1-methyl-4,5,6,7-tetrahydro-1H-imidazo[4,5-c]pyridine-2-carboxamido)-2,2'-dichloro-[1,1'-biphenyl]-3-yl)carbamoyl)-4,5,6,7-tetrahydropyrazolo[1,5-a]pyridin-4-yl)pyrrolidine-3-carboxylic acid], with above 8.00; and `Cn1c(C(=O)Nc2cccc(-c3cccc(NC(=O)c4cc5n(n4)CCCC5N4CCC(O)CC4)c3Cl)c2Cl)nc2c1CCN(CCC13CCC(C(=O)O)(CC1)C3)C2` (centres unmarked) [Compound 58, 4-(2-(2-((2,2'-dichloro-3'-(4-(4-hydroxypiperidin-1-yl)-4,5,6,7-tetrahydropyrazolo[1,5-a]pyridine-2-carboxamido)-[1,1'-biphenyl]-3-yl)carbamoyl)-1-methyl-6,7-dihydro-1H-imidazo[4,5-c]pyridin-5(4H)-yl)ethyl)bicyclo[2.2.1]heptane-1-carboxylic acid], with 7.00 to 8.00.
As for `Cn1c(C(=O)Nc2cccc(-c3cccc(NC(=O)c4cc5n(n4)CCCC5N4CCC(C(=O)O)CC4)c3Cl)c2Cl)nc2c1CCN(CCC13CCC(C(=O)O)(CC1)C3)C2` (centres unmarked) [Compound 59, 1-(2-((3'-(5-(2-(4-carboxybicyclo[2.2.1]heptan-1-yl)ethyl)-1-methyl-4,5,6,7-tetrahydro-1H-imidazo[4,5-c]pyridine-2-carboxamido)-2,2'-dichloro-[1,1'-biphenyl]-3-yl)carbamoyl)-4,5,6,7-tetrahydropyrazolo[1,5-a]pyridin-4-yl)piperidine-4-carboxylic acid], the pIC50 is above 8.00.
Then `Cn1c(C(=O)Nc2cccc(-c3cccc(NC(=O)c4cc5n(n4)CCCC5NC(C)(C)C(=O)O)c3Cl)c2Cl)nc2c1CCN(CCC13CCC(C(=O)O)(CC1)C3)C2` (centres unmarked) [Compound 60, 4-(2-(2-((3'-(4-((2-carboxypropan-2-yl)amino)-4,5,6,7-tetrahydropyrazolo[1,5-a]pyridine-2-carboxamido)-2,2'-dichloro-[1,1'-biphenyl]-3-yl)carbamoyl)-1-methyl-6,7-dihydro-1H-imidazo[4,5-c]pyridin-5(4H)-yl)ethyl)bicyclo[2.2.1]heptane-1-carboxylic acid], with above 8.00; and `Cc1c(NC(=O)c2cc3n(n2)CCCC3O)cccc1-c1cccc(-c2nc3cc(CN4CC[C@@H](C(=O)O)C4)cc(C#N)c3o2)c1C` (stereo partly drawn) [Compound 61, (3R)-1-((7-cyano-2-(3'-(4-hydroxy-4,5,6,7-tetrahydropyrazolo[1,5-a]pyridine-2-carboxamido)-2,2'-dimethyl-[1,1'-biphenyl]-3-yl)benzo[d]oxazol-5-yl)methyl)pyrrolidine-3-carboxylic acid], with above 8.00.
Then `CC(=O)NCCNC1CCCn2nc(C(=O)Nc3cccc(-c4cccc(-c5nc6cc(CN7CC[C@@H](C(=O)O)C7)cc(C#N)c6o5)c4C)c3C)cc21` (stereo partly drawn) [Compound 62, (3R)-1-((2-(3'-(4-((2-acetamidoethyl)amino)-4,5,6,7-tetrahydropyrazolo[1,5-a]pyridine-2-carboxamido)-2,2'-dimethyl-[1,1'-biphenyl]-3-yl)-7-cyanobenzo[d]oxazol-5-yl)methyl)pyrrolidine-3-carboxylic acid], with above 8.00; and `Cc1c(NC(=O)c2cc3n(n2)CCCC3NCCO)cccc1-c1cccc(-c2nc3cc(CN4CC[C@@H](C(=O)O)C4)cc(C#N)c3o2)c1C` (stereo partly drawn) [Compound 64, (3R)-1-((7-cyano-2-(3'-(4-((2-hydroxyethyl)amino)-4,5,6,7-tetrahydropyrazolo[1,5-a]pyridine-2-carboxamido)-2,2'-dimethyl-[1,1'-biphenyl]-3-yl)benzo[d]oxazol-5-yl)methyl)pyrrolidine-3-carboxylic acid], with above 8.00; and `Cc1c(NC(=O)c2cc3n(n2)CCCC3NC[C@@H]2CCC(=O)N2)cccc1-c1cccc(-c2nc3cc(CN4CC[C@@H](C(=O)O)C4)cc(C#N)c3o2)c1C` (stereo partly drawn) [Compound 65, (3R)-1-((7-cyano-2-(2,2'-dimethyl-3'-(4-((((S)-5-oxopyrrolidin-2-yl)methyl)amino)-4,5,6,7-tetrahydropyrazolo[1,5-a]pyridine-2-carboxamido)-[1,1'-biphenyl]-3-yl)benzo[d]oxazol-5-yl)methyl)pyrrolidine-3-carboxylic acid], with above 8.00.
To `Cc1c(NC(=O)c2cc3n(n2)CCCC3NCC(=O)O)cccc1-c1cccc(-c2nc3cc(CN4CC[C@@H](C(=O)O)C4)cc(C#N)c3o2)c1C` (stereo partly drawn) [Compound 66, (3R)-1-((2-(3'-(4-((carboxymethyl)amino)-4,5,6,7-tetrahydropyrazolo[1,5-a]pyridine-2-carboxamido)-2,2'-dimethyl-[1,1'-biphenyl]-3-yl)-7-cyanobenzo[d]oxazol-5-yl)methyl)pyrrolidine-3-carboxylic acid] belongs above 8.00.
